Test results from patent US20120329767A1, “Methods and Compositions for Treating Cancer” (priority 2010, published 2012).
Read-outs that look alike come from different tables or passages of the source.

What was measured:
3LL = experiment: MTT test on 3LL lung cancer line; format: cell-based; settings: MTT method
HCT-116 cells = experiment: MTT test on HCT116 colon cancer cells; format: cell-based, human; settings: MTT method, Table 2
Procedure: A human glioblastoma line (A172) and a colon cancer line (HCT116) were used to test the cytostatic effects of the compounds according to the invention. Cisplatin was chosen as cytotoxic agent for comparison. As first approach, a MTT test was used to measure the activity of a mitochondrial enzyme which gives an estimation of the number of cells.
The experiments were performed under a vertical laminar flow hood. The cell growth medium was composed of DMEM (Dulbecco's Modified Eagle's Medium), HEPES, 10% FCS (Foetal Calf Serum), 5% PS (Penicillin, Streptomycin) and was stored at +4° C., and PBS (Phosphate Buffer Saline, pH=7.4). […] MTT (4,5-dimethylthiazol-2-diphenyltetrazolium bromide) is a yellow solid produced by Aldrich. […]
(§3) When they were sufficiently numerous (70% confluence) they were washed in PBS at ambient temperature then mixed with 1.5 mL of Trypsin-EDTA to detach them from the Petri dish. […] After 48 hours, the medium was replaced by a MTT solution at 37° in the medium, which was placed in the incubator for at least one hour or until violet crystals derived from the complexing of MTT were formed quantitatively at the bottom of each well. […] The optical density of the solutions obtained was read off. […]
The IC50 values (μM) were determined for each of the lines and compared with the values obtained for a reference ruthenium derived compound.

N2A = experiment: MTT test on N2A neuroblastoma line; format: cell-based; settings: MTT method
HCT116 cells = experiment: Cell cycle profile by FACS after propidium iodide staining; format: cell-based, human; settings: HCT116 cells treated 48 h at 1 μM and 5 μM
Text: The effect of compounds 8 and 9 on the cell profile was studied using the FACS technique (Fluorescence Activated Cell Sorter i.e. the association of a flow cytometer and a cell sorter) after staining the cells with propidium iodide to visualize the quantity of cell DNA. These analyses allow visualization of the cell cycle phase at which the cells accumulate subsequent to treatment with the compounds of the invention, and possibly whether cell death by apoptosis has been induced.
In this experiment, the HCT116 cells were treated for 48 h at the indicated doses (1 μM and 5 μM). After a treatment time of 48 h, the cells were washed three times with PBS (phosphate buffer saline) and fixed in 90% ethanol. The cells were then stained with a solution of propidium iodide/RNase. The stained cells (10 000 per sample) were then counted using a FACScan flow cytometer and CellQuest software (Becton Dickinson) to determine the DNA content and the profile of the cell cycle.

A-172 cells = experiment: MTT test on A172 glioblastoma cells; format: cell-based, human; settings: 48 h treatment, A-172 glioblastoma cells, Table 1
Procedure: Cisplatin was chosen as cytotoxic agent for comparison. As first approach, a MTT test was used to measure the activity of a mitochondrial enzyme which gives an estimation of the number of cells.
The experiments were performed under a vertical laminar flow hood. The cell growth medium was composed of DMEM (Dulbecco's Modified Eagle's Medium), HEPES, 10% FCS (Foetal Calf Serum), 5% PS (Penicillin, Streptomycin) and was stored at +4° C., and PBS (Phosphate Buffer Saline, pH=7.4). […] MTT (4,5-dimethylthiazol-2-diphenyltetrazolium bromide) is a yellow solid produced by Aldrich. It was placed in sterile aqueous solution at a concentration of 5 mg/ml and stored at +4° C. It was diluted to 10% in the cell culture medium when used as staining agent of the living cells.
as §3

A2780 = experiment: MTT test on A2780 ovarian cancer line; format: cell-based; settings: MTT method
U87 = experiment: MTT test on U87 glioblastoma line; format: cell-based; settings: MTT method
[1] = tested on: melanoma model F10B16 implanted in Black-6 mice; experiment: Tumour growth in in vivo melanoma model F10B16; settings: F10B16 melanoma in Black-6 mice, twice a week at 7.5 μmol/kg
Text: To determine the anti-cancer potential of these molecules, we analyzed the effects of compound 8 and compound 9 on tumour growth, using the in vivo melanoma model F10B16 implanted in Black-6 mice. […] The chronic treatments (twice a week at 7.5 μmol/kg) in mice having tumours led to a reduction in tumour growth. This reduction in tumour growth (treated tumour volume/non-treated tumour volume: T/C) was of the order of 80% for compound 8 and 60% for compound 9 (see Table 4 and FIGS. 6 and 7).
In these experiments, the […] cells (200 000 cells) were implanted sub-cutaneously in Black-6 mice aged 8 weeks. Groups of 6 mice per condition were formed. The treatments were started when the tumours were palpable with a volume of the order of 100 mm^3.

Fadu = experiment: MTT test on Fadu head & neck cancer line; format: cell-based; settings: MTT method
Black-6 mice = Black-6 mice aged 8 weeks, single dose, intraperitoneal, followed up over 15 days
Text: As comparison, the acute toxicity of the above-described reference compound is given.
In this experiment, the injections were given via intraperitoneal route with groups of 5 animals per dose. The weight and survival of the animals were followed up over 15 days.

CHOP protein = experiment: Expression of the CHOP protein, Western blot; format: cell-based, human; settings: A172 tumour cells treated 6 hours at 5 μM and 10 μM, versus reference compound
Text: (§1) To determine via which mechanisms of action compounds 8 and 9 could lead to slowing of cell proliferation or to cell death, the activation of two specific markers, the expression of the CHOP protein and phosphorylation of the histone H2AX on the serine site […] were monitored. The CHOP protein has pro-apoptotic properties (induction of cell death). Phosphorylation of the H2AX histone is a marker of DNA damage which leads to activation of p53, a protein having pro-apoptotic properties or the property of slowing cell proliferation.
(§2) In these experiments, the tumour cells A172 were treated for 6 hours with the compounds at two concentrations (5 μM and 10 μM). After the 6 hour treatment time, the cells were lysed and […] of soluble proteins were separated on 12% polyacrylamide gel. After migration, the proteins were transferred onto nitrocellulose using the Western blot technique. The proteins CHOP and H2AX were then detected using specific primary antibodies, themselves recognized by corresponding secondary antibodies whose peroxidase activity was identified using an ECL kit.

histone H2AX = experiment: Phosphorylation of histone H2AX, Western blot; format: cell-based, human; settings: A172 tumour cells treated 6 hours at 5 μM and 10 μM, versus reference compound
Text: as §1, §2

Katto III = experiment: MTT test on Katto III pancreatic cancer line; format: cell-based; settings: MTT method, Katto III gastric cancer

| SMILES | IC50 (3LL) | IC50 (HCT-116 cells) | IC50 (N2A) | Profile of the cell cycle (HCT116 cells) | IC50 (A-172 cells) | IC50 (A2780) | IC50 (U87) | T/C (reduction in tumour growth; treated tumour volume/non-treated tumour volume) ([1]; listed as Compound 9) | T/C (reduction in tumour growth; treated tumour volume/non-treated tumour volume) ([1]; listed as compound 9) | IC50 (Fadu) | LD50 (Black-6 mice; listed as Compound 9) | LD50 (Black-6 mice; listed as compound 9) | Induction of expression of the CHOP protein (CHOP protein) | Phosphorylation of the histone H2AX on the serine site 137 (histone H2AX) | IC50 (Katto III) | T/C (reduction in tumour growth; treated tumour volume/non-treated tumour volume) ([1]; listed as Compound 8) | T/C (reduction in tumour growth; treated tumour volume/non-treated tumour volume) ([1]; listed as compound 8) | LD50 (Black-6 mice) |
| --- | --- | --- | --- | --- | --- | --- | --- | --- | --- | --- | --- | --- | --- | --- | --- | --- | --- | --- |
| CC#[N+][Ru-4]123([c]4c(cc(C)cc4-c4cccc[n+]41)-c1cccc[n+]12)[n+]1cccc2ccc4ccc[n+]3c4c21.F[P-](F)(F)(F)(F)F [Compound (9)] | 100 to 1000 nM | 100 to 1000 nM | 100 to 1000 nM | induce a halt in the cell cycle at phase G1 or cell death | 600 to 1000 nM | 100 to 1000 nM | 1000 to 2000 nM | 58% | ~60% | 100 to 1000 nM | >60 µmol/kg | > 60 µmol/kg | more efficient | more efficient | 100 to 1000 nM | – | – | – |
| CC#[N+][Ru-4]123([c]4c(cc(C(=O)OC)cc4-c4cccc[n+]41)-c1cccc[n+]12)[n+]1cccc2ccc4ccc[n+]3c4c21.F[P-](F)(F)(F)(F)F [Compound (8)] | 1000 to 2000 nM | 1000 to 2000 nM | 1000 to 2000 nM | induce a halt in the cell cycle at phase G1 or cell death | 1500 to 1900 nM | 1000 to 2000 nM | 1000 to 2500 nM | – | – | 1000 to 2000 nM | – | – | more efficient | more efficient | 1000 to 2000 nM | 81% | ~80% | 22.5 µmol/kg |
